Data reported in patent US20230355558A1 (priority 2022, published 2023).
Entries after “also recorded” stand apart in the source; their conditions may differ.

Assays:
[1] = Qualitative test for relative solubility
[2] = system: NDV (Newcastle disease virus) strain R2B
[3] = system: Human neuroblastoma cell line Sh-Sy5y; test: Cellular toxicity assay (MTT assay), neurotoxicity; settings: Sh-Sy5y cells, 1 ug/mL, 24 hours
plasmin = plasmin (Homo sapiens, UniProt P00747); test: Fibrin clot degradation by plasmin (gravimetric, protease inhibition); assay type: biochemical; settings: for protease inhibition activity (inhibiting plasmin mediated degradation of fibrin clots): 0-1 mM in fibrin clots, plasmin in PBS buffer; for protease inhibition activity (inhibiting plasmin mediated degradation of fibrin clots) / resistance against fibrin clot degradation by plasmin: up to 48 hours; for resistance against fibrin clot degradation by plasmin: about 0.1 mM, triplicate; for plasmin-mediated degradation of fibrin clots at 3% loading: about 3% loading in fibrin clots; for protease inhibition activity compared with TA (conclusion): fibrin clot / plasmin system; for degradation of the clot: about 16 hours
[4] = Fibrin clot swelling at 3% loading, with and without plasmin; settings: for fibrin clot swelling in degrading medium prior to degradation: medium containing plasmin; for fibrin clot swelling in non-degrading medium: no plasmin

Sequence of plasmin (P00747 581-810): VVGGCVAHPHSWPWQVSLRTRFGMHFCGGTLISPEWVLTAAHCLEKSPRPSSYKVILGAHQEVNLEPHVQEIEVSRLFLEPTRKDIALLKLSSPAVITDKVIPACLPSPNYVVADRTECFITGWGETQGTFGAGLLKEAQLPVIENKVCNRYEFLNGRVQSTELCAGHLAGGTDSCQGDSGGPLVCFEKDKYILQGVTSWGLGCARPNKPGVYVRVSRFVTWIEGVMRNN
Sequence of plasmin (P00747 97-580): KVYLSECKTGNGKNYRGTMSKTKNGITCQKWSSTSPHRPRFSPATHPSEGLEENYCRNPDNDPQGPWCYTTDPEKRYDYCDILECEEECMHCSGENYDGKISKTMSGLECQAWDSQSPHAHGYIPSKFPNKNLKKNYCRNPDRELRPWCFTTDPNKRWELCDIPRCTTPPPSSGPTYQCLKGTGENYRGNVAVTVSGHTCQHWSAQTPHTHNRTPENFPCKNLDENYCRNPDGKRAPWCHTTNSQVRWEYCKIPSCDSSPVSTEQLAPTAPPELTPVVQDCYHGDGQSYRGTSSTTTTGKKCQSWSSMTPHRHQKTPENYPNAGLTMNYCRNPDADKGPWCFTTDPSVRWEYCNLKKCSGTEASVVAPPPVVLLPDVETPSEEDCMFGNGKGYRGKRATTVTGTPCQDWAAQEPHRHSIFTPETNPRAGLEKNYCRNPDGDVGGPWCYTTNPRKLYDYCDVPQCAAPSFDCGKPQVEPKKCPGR

Compound	water solubility [1]	solvent needed to dissolve in buffer relative to water ([1]; pH 7.4 100 mM phosphate buffer versus water)	solubility in methanol or propanol ([1]; room temperature)	antiviral activity versus virus control [2]	toxicity to cells treated with compound only [2]	cytotoxicity or neurotoxicity compared with TA [3]	protease inhibition activity (inhibiting plasmin mediated degradation of fibrin clots) (plasmin; pH 7.4, 37° C.)	resistance against fibrin clot degradation by plasmin (plasmin; pH 7.4, 37° C.)	plasmin-mediated degradation of fibrin clots at 3% loading (plasmin)	protease inhibition activity compared with TA (conclusion) (plasmin)	concentration at which efficacious against fibrin clot degradation (plasmin; plasmin, pH 7.4, 37° C.) [mM]	fibrin clot swelling in degrading medium prior to degradation [4]	fibrin clot swelling in non-degrading medium [4]	degradation of the clot (plasmin; 0.1 mM, plasmin, pH 7.4, 37° C.) [%]	degradation of the clot (plasmin; 1 mM, plasmin, pH 7.4, 37° C.)
NCC1CCC(C(=O)[O][Ca][O]C(=O)C2CCC(CN)CC2)CC1 (stereo not shown) [Ca-TA, Calcium bis-tranexamate]	water soluble	approximately four times as much solvent	not soluble to a significant degree	no significant difference between the virus control and treated	no toxicity was observed	comparable cytotoxicity or neurotoxicity results as that of TA	dose-dependent protease inhibition activity; also recorded: exhibit protease inhibition activity	effective resistance	inhibited plasmin-mediated degradation of the fibrin clots for a longer period	comparable to that of TA	≤ 0.1	more than 50%	more than 50%		
COCC(=O)NCC1CCC(C(=O)O)CC1 (stereo not shown) [MTA, N-(methoxy-acetamido) tranexamic acid]	water soluble			no significant difference between the virus control and treated		reduced neurotoxicity than TA	exhibit protease inhibition activity			eliminates or significantly reduces protease inhibition activity; also recorded: reduced protease inhibition activity than TA				100	about 85.1+/−0.6%
NCC1CCC(C(=O)O)CC1 (stereo not shown) [TA, Tranexamic acid, reference compound]				no significant difference between the virus control and treated				effective resistance	inhibited plasmin-mediated degradation of the fibrin clots for a longer period			degraded without swelling	did not swell		
